For one test, the target named is CYP2C19 (Homo sapiens, UniProt P33261). In words: Cytochrome P450 inhibition, human recombinant CYP2C19. The note with it: recombinant human CYP, 10 minutes, 37° C. The format is in vitro ADME. The procedure: (§1) Inhibitory activity of the compounds towards CYP1A2, 2C9, 2C19, 2D6, and 3A4 was evaluated using human recombinant CYPs. Test compounds and reference inhibitors were initially prepared from their stock solutions in a mixture solvent of DMSO/ACN (10/90) at a concentration of 200-fold of the final. A 3-fold serial dilution (1/3, 1/9, 1/27 etc.) was made in the DMSO/ACN mixture solvent to generate 7 consecutive concentrations. The serially diluted solutions of test compounds and reference inhibitors (positive controls) were further diluted directly in recombinant human CYP enzymes in assay buffer (0.1 M potassium phosphate buffer, pH7.4) to reach the concentration of 2-fold of the final (2×). Aliquots of 30 μL of 2× compound/enzyme solutions were loaded to a 96-well assay plates and preincubated at 37° C. for 10 minutes. An aliquot of 15 μL of prewarmed 4× substrate solutions made in the assay buffer was added into each of the wells containing the 2× compound/enzyme mixtures. Finally, the reaction was initiated by adding an aliquot of 15 μL of 4×NADPH made in the assay buffer and the assay plates were further incubated at 37° C. for a time period designated for each isoform (5 minutes for 3A4, 20 minutes for 2C9, 10 minutes for 2D6 and 2C19, and 15 minutes for 1A2). The reactions were stopped by adding 120 μL ACN containing the stable isotopes of the metabolites for corresponding CYP isoforms, followed by vortexing for 5 minutes and centrifugation at 4000 rpm for 15 minutes. The resulting supernatants were transferred into new 96-well plates for LC-MS/MS analysis. Experiments are performed in duplicate. The inhibitory concentration of 50% of the enzymatic activity is calculated.

In another test the target is T1, CYP1A2 (Homo sapiens, UniProt P05177).
T1 sequence (P05177 1-516): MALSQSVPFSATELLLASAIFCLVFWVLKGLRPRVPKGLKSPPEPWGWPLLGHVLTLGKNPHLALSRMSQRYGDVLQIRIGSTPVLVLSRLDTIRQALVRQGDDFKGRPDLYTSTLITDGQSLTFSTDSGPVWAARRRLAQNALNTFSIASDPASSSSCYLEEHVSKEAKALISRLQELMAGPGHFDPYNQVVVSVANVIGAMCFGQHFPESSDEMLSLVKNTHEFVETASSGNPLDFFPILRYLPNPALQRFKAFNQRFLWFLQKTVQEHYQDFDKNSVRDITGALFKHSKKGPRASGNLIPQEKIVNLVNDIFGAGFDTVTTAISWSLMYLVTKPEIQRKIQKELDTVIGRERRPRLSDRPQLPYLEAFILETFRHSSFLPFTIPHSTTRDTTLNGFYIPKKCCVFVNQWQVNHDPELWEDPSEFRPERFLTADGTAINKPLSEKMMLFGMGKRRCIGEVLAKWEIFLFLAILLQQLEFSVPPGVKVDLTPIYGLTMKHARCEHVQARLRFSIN
In words: Cytochrome P450 inhibition, human recombinant CYP1A2. The class given is in vitro ADME. The note with it: recombinant human CYP, 15 minutes, 37° C. The procedure: as §1

For another test, the target named is T2, aromatase (Homo sapiens, UniProt P11511).
T2 construct: JEG-3 which constitutively expresses high amount of aromatase and steroid sulfatase; endogenous in cells; host or cells: JEG-3
T2 sequence (P11511 1-503): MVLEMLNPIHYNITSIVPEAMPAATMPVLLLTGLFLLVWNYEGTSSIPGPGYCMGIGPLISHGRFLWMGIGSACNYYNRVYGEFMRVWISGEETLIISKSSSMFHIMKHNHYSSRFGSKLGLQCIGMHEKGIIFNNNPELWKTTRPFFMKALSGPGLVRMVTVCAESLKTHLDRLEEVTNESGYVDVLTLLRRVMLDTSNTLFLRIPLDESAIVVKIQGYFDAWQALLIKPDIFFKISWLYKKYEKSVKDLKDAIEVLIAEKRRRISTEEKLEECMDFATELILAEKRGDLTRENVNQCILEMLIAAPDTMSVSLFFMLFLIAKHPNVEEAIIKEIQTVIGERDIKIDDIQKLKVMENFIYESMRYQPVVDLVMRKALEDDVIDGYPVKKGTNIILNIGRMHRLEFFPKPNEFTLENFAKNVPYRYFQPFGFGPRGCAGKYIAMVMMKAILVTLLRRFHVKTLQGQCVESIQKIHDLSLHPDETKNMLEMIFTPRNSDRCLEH
In words: Aromatase inhibition assay in JEG-3 cells ([1β-3H] androstenedione, tritiated water release). The class given is cell-based. The settings on record: 1.25 hour incubation, duplicate. Here is the method:
(§2) Aromatase and steroid sulfatase enzymes inhibitions were evaluated in the human chorionic carcinoma cell line JEG-3 which constitutively expresses high amount of aromatase and steroid sulfatase.
For aromatase inhibition assay, JEG-3 cells were seeded into 96-well plates at 35,000 cells/well and maintained in MEM containing supplements. When reaching 80% confluent, the cells were washed once with serum-free MEM, incubated with [1β-^3H] androstenedione (A4, 0.2 μCi/ml) for 1.25 hour in the presence of the test substances added in a concentration series. The product, tritiated water (^3H2O), was separated using 2.5% (w/v) dextran-coated charcoal at 4-8° C. for 2 hours. The supernatant radioactivity was measured by a MicroBeta scintillation counter.
(§3) Experiments are performed in duplicate. The inhibitory concentration of 50% of the enzymatic activity is calculated.

Another test has as its target CYP3A4 (Homo sapiens, UniProt P08684). Briefly: Cytochrome P450 inhibition, human recombinant CYP3A4. The note with it: recombinant human CYP, 5 minutes, 37° C. The format is in vitro ADME. The procedure: as §1
Another test concerns the target CYP2C9 (Homo sapiens, UniProt P11712). In words: Cytochrome P450 inhibition, human recombinant CYP2C9. The format is in vitro ADME. The settings on record: recombinant human CYP, 20 minutes, 37° C. The procedure: as §1
In the next test the target is CYP2D6 (Homo sapiens, UniProt P10635). Briefly: Cytochrome P450 inhibition, human recombinant CYP2D6. The settings on record: recombinant human CYP, 10 minutes, 37° C. The class given is in vitro ADME. Here is the method: as §1
The target in another test is T3, steroid sulfatase (Homo sapiens, UniProt P08842).
T3 construct: JEG-3 which constitutively expresses high amount of aromatase and steroid sulfatase; endogenous in cells; host or cells: JEG-3
T3 sequence (P08842 22-583): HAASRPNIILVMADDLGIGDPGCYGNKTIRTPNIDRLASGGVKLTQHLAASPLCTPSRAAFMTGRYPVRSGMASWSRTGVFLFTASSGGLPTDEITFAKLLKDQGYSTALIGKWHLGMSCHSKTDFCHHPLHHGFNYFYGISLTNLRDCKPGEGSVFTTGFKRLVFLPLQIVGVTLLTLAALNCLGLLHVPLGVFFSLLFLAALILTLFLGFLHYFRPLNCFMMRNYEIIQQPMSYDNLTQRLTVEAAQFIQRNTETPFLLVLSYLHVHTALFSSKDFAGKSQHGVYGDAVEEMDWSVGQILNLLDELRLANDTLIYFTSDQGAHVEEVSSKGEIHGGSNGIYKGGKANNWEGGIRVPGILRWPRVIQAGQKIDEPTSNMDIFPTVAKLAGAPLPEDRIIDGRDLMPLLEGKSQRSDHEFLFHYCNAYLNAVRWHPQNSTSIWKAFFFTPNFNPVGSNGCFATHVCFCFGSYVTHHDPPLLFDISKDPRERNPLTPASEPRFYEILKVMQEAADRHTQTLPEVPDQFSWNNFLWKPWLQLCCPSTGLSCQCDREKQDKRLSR
Briefly: Steroid sulfatase (STS) inhibition assay in JEG-3 cells ([6,7-3H] estrone sulfate). The class given is cell-based. The note with it: 1 hour at 37° C., duplicate. The procedure:
as §2
For STS assay, JEG-3 cells were seeded into 24-well culture plates at 150,000 cells/ml/well and maintained in MEM containing supplements overnight. When reaching 80% confluent, the cells were washed once with serum-free MEM, loaded with 1 ml of substrate mix containing [6,7-3H] Estrone sulfate (E1S, 0.6 μCi/ml) and [4-14C] Estrone (E1, 4 nCi/ml) in the presence of compounds in a concentration series, and incubated for 1 hour at 37° C. The product [3H]E1 was separated from E1S by toluene partition using [4-14C]E1 to monitor extraction procedural losses, and the toluene fraction radioactivity was measured by a MicroBeta scintillation counter.
as §3

A value given as a limit tells only on which side of the number the result lay.

Chain of CYP2D6 (P10635 whole entry): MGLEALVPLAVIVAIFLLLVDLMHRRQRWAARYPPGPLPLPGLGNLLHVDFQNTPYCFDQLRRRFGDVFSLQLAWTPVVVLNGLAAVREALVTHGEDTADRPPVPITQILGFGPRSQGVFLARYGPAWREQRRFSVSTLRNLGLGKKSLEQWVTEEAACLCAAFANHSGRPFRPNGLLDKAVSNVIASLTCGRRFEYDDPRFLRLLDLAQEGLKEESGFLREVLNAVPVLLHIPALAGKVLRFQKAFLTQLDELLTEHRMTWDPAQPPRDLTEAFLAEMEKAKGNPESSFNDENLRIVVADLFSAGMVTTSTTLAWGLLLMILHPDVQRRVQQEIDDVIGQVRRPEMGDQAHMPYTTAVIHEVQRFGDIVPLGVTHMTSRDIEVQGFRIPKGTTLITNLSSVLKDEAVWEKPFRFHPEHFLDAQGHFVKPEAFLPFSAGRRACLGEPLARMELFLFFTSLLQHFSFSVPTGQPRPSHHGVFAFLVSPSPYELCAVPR
Chain of CYP2C9 (P11712 whole entry): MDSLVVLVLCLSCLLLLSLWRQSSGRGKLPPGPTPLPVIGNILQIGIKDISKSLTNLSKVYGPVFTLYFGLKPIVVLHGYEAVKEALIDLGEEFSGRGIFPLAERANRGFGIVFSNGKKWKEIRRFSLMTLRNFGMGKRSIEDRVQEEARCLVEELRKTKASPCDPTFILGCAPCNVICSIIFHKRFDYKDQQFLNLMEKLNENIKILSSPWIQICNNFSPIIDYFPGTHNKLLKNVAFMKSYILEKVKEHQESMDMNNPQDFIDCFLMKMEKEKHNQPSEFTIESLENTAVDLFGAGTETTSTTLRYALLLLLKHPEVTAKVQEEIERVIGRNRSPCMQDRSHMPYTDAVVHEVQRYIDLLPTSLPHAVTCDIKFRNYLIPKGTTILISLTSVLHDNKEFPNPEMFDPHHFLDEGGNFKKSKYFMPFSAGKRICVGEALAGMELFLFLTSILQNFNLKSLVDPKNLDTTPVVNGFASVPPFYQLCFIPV
Chain of CYP3A4 (P08684 whole entry): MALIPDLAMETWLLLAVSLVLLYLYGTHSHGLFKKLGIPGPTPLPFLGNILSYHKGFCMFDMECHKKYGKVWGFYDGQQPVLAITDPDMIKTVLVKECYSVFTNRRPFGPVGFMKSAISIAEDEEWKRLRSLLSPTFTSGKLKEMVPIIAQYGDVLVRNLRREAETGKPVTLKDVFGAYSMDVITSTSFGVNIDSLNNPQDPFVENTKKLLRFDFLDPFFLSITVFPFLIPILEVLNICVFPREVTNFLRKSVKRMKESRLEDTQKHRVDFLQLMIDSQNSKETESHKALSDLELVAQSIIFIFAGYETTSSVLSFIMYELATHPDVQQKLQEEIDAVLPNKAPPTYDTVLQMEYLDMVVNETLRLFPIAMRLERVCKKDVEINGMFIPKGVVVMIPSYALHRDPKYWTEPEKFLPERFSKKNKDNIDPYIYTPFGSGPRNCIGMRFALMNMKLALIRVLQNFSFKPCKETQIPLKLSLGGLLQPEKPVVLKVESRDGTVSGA
Chain of CYP2C19 (P33261 whole entry): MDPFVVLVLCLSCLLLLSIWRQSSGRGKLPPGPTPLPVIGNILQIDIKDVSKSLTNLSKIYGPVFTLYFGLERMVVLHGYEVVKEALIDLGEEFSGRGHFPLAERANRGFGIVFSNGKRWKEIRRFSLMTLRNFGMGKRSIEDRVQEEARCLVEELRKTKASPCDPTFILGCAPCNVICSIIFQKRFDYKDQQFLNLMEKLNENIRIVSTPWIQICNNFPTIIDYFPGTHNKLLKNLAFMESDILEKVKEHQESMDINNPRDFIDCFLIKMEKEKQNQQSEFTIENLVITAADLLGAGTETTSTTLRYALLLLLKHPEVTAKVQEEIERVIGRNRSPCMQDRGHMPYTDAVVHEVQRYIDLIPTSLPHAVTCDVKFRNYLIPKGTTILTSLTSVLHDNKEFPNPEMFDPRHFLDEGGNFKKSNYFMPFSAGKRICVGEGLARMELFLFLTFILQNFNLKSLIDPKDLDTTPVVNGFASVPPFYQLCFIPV

As to `N#Cc1ccc(Cn2cnc3cc(F)c(F)cc32)cc1-c1ccc(OS(N)(=O)=O)cc1` [Example 24, 2′-Cyano-5′-((5,6-difluoro-1H-benzo[d]imidazol-1-yl)methyl)biphenyl-4-yl sulfamate], the IC50 at CYP2C19 was > 5 µM; on CYP1A2, > 5 µM; at aromatase, 0.0009 µM; at CYP3A4, 3.26 µM; at CYP2C9, > 5 µM; at CYP2D6 it was > 5 µM. At steroid sulfatase, this compound had an IC50 of 0.002 µM.

Regarding `N#Cc1cnc(Cn2cnc3ccccc32)cc1-c1ccc(OS(N)(=O)=O)cc1` [Example 17, 4-(2-((1H-Benzo[d]imidazol-1-yl)methyl)-5-cyanopyridin-4-yl)phenyl sulfamate], the IC50 on CYP2C19 was > 5 µM; at CYP1A2, > 5 µM; against aromatase it was 0.0022 µM; on CYP3A4 it was > 5 µM; on CYP2C9, > 5 µM; on CYP2D6 it was > 5 µM. Also, the IC50 at steroid sulfatase is 0.0039 µM.

In the case of `N#Cc1cnc(Nn2cnc3ccccc32)cc1-c1ccc(OS(N)(=O)=O)cc1` [Example 26, 4-(2-(1H-Benzo[d]imidazol-1-ylamino)-5-cyanopyridin-4-yl)phenyl sulfamate], the IC50 is > 5 µM at CYP2C19; > 5 µM on CYP1A2; 0.0027 µM on aromatase; 2.54 µM at CYP3A4; > 5 µM on CYP2C9; > 5 µM at CYP2D6. The IC50 at steroid sulfatase was 0.0118 µM.

Consider `N#Cc1cnc(Cn2cnc3cccnc32)cc1-c1ccc(OS(N)(=O)=O)cc1` [Example 36, 4-(2-((3H-Imidazo[4,5-b]pyridin-3-yl)methyl)-5-cyanopyridin-4-yl)phenyl sulfamate], for which the half-inhibitory concentration (IC50) at CYP2C19 was > 5 µM; at CYP1A2 it was > 5 µM; at aromatase it was 0.002 µM; on CYP3A4, > 5 µM; on CYP2C9, > 5 µM; at CYP2D6, > 5 µM. The compound further registered an IC50 against steroid sulfatase of 0.0105 µM.

With `N#Cc1ccc(Nn2cnc3ccccc32)nc1-c1ccc(OS(N)(=O)=O)cc1` [Example 22, 4-(6-(1H-Benzo[d]imidazol-1-ylamino)-3-cyanopyridin-2-yl)phenyl sulfamate], the IC50 at CYP2C19 was > 5 µM; at CYP1A2 it was > 5 µM; against aromatase it was 0.0037 µM; on CYP3A4, > 5 µM; at CYP2C9, > 5 µM; on CYP2D6, > 5 µM. Besides, the IC50 against steroid sulfatase was 0.006 µM.

For the compound `N#Cc1cnc(Cn2cnc3ccccc32)nc1-c1ccc(OS(N)(=O)=O)cc1` [Example 9, 4-(2-((1H-Benzo[d]imidazol-1-yl)methyl)-5-cyanopyrimidin-4-yl)phenyl sulfamate], the IC50 was > 5 µM at CYP2C19; > 5 µM on CYP1A2; 0.0035 µM against aromatase; 3.68 µM at CYP3A4; > 5 µM at CYP2C9; > 5 µM at CYP2D6. The compound further showed an IC50 against steroid sulfatase of 0.0018 µM.

For `N#Cc1ncc(Cn2cnc3ccccc32)cc1-c1ccc(OS(N)(=O)=O)cc1` [Example 31, 4-(5-((1H-Benzo[d]imidazol-1-yl)methyl)-2-cyanopyridin-3-yl)phenyl sulfamate], the IC50 at CYP2C19 was > 5 µM; on CYP1A2 it was > 5 µM; against aromatase, 0.0046 µM; on CYP3A4 it was > 5 µM; on CYP2C9, > 5 µM; at CYP2D6, > 5 µM. The compound further returned an IC50 at steroid sulfatase of 0.0105 µM.
